Reference: US12398097B2, “WDR5-MYC inhibitors” (Vanderbilt University, priority 2019, dated 2025)

target: WDR5 (Homo sapiens, UniProt P61964); test: Competition-based fluorescence polarization anisotropy assay; details: binding to WDR5; displacement of FITC-labeled small molecule probe (analogous to Example J2 or HCH-25) or peptide probe FITC-AHx-SEEEIDVVSV; pH 6.0; Ki converted from IC50
Procedure, shortened: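 Ki values derive from displacement of either a fluorescent small-molecule probe or a FITC-peptide probe from WDR5, monitored by fluorescence polarization. Assay run at pH 6.0 in 200 mM phosphate with 300 mM NaCl, 0.5 mM TCEP and 0.1% Chaps.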

Row | Compound | Ki [nM]
1 | COc1cc(OC)c(S(=O)(=O)Nc2cc(Cl)cc([N+](=O)[O-])c2O)cc1Br [NE8, 5-Bromo-N-(5-chloro-2-hydroxy-3-nitrophenyl)-2,4-dimethoxybenzenesulfonamide] | 7240
2 | O=[N+]([O-])c1cc(Cl)cc(NS(=O)(=O)c2cc(Br)cc(OC(F)(F)F)c2O)c1O [NE9, 5-Bromo-N-(5-chloro-2-hydroxy-3-nitrophenyl)-2-hydroxy-3-(trifluoromethoxy)benzenesulfonamide] | 390
3 | CCCc1cc(Br)cc(S(=O)(=O)Nc2cc(Cl)cc([N+](=O)[O-])c2O)c1O [NE10, 5-Bromo-N-(5-chloro-2-hydroxy-3-nitrophenyl)-2-hydroxy-3-propylbenzenesulfonamide] | 11700
4 | O=C(O)c1cc(Br)cc(S(=O)(=O)Nc2cc(Cl)cc([N+](=O)[O-])c2O)c1O [NE12] | 610
5 | O=C1CCCN1c1cc(Cl)cc(NS(=O)(=O)c2cc(Br)cc(Cl)c2O)c1 [NE13, 5-Bromo-3-chloro-N-(3-chloro-5-(2-oxopyrrolidin-1-yl)phenyl)-2-hydroxybenzenesulfonamide] | 1420
6 | O=C1NCCN1c1cc(Cl)cc(NS(=O)(=O)c2cc(Br)cc(Cl)c2O)c1 [NE14, 5-Bromo-3-chloro-N-(3-chloro-5-(2-oxoimidazolidin-1-yl)phenyl)-2-hydroxybenzenesulfonamide] | 370
7 | CNC(=O)c1cc(C2(C#N)CCC2)cc(NS(=O)(=O)c2cc(Br)cc(Cl)c2OC)c1O [SN-3, 3-((5-bromo-3-chloro-2-methoxyphenyl)sulfonamido)-5-(1-cyanocyclobutyl)-2-hydroxy-N-methylbenzamide] | 13700
8 | COc1c(Cl)cc(Br)cc1S(=O)(=O)Nc1cc(C2(C#N)CCC2)cc(C(=O)O)c1O [SN-4, 3-((5-bromo-3-chloro-2-methoxyphenyl)sulfonamido)-5-(1-cyanocyclobutyl)-2-hydroxybenzoic acid] | 870
9 | CNC(=O)c1cc(C2(C#N)CCC2)cc(NS(=O)(=O)c2cc(Br)c(F)cc2OC)c1O [SN-5, 3-((5-bromo-4-fluoro-2-methoxyphenyl)sulfonamido)-5-(1-cyanocyclobutyl)-2-hydroxy-N-methylbenzamide] | 2620
10 | N#CC1(c2cc(NS(=O)(=O)c3cc(Br)cc4cccnc34)c(O)c(C(=O)O)c2)CCC1 [SN-6, 3-((6-bromoquinoline)-8-sulfonamido)-5-(1-cyanocyclobutyl)-2-hydroxybenzoic acid] | 40
11 | CNC(=O)c1cc(C2(C#N)CCC2)cc(NS(=O)(=O)c2cc(Br)cc3c2OCC3)c1O [SN-9, 3-((5-bromo-2,3-dihydrobenzofuran)-7-sulfonamido)-5-(1-cyanocyclobutyl)-2-hydroxy-N-methylbenzamide] | 990
12 | N#CC1(c2cc(NS(=O)(=O)c3cc(Br)cc4c3OCC4)c(O)c(C(=O)O)c2)CCC1 [SN-10, 3-((5-bromo-2,3-dihydrobenzofuran)-7-sulfonamido)-5-(1-cyanocyclobutyl)-2-hydroxybenzoic acid] | 50
13 | Methyl 4-chloro-2-(N-(5-chloro-2-hydroxy-3-nitrophenyl)sulfamoyl)benzoate [NE4] | 1810
14 | Methyl 4-chloro-2-(N-(5-chloro-2-hydroxy-3-nitrophenyl)sulfamoyl)benzoate [NE5] | 460
